From patent US6875451B2, “Compositions and methods for the treatment of primary and metastatic neoplastic diseases using arsenic compounds” (PolaRx Biopharmaceuticals Inc., priority 1997, dated 2005)

Key:
DU-145 = experiment: SRB growth assay, 2 days exposure, prostate cancer; assay type: cell-based
Method: (§1) Arsenic trioxide (1 mg/ml, 10 mg/ampoule, manufactured by Taylor Pharmaceuticals, Decatur, Ill.) was tested at five concentrations each at 10-fold dilutions, i.e., 10^−5, 10^−6, 10^−7, 10^−8 and 10^−9 μg/ml.
(§2) The in vitro tests were performed by incubating the test cells in the presence of the indicated concentration of arsenic trioxide under standard culture conditions for a designated period of time, which is followed by a sulforhodamine B (SRB) protein assay to estimate cell viability or growth. The cell lines are organized into subpanels according to the origin of the cell lines, e.g., leukemia, breast cancer, etc. A description of the cell lines and method of testing is described in Monk et al. (1997, Anticancer Drug Des. 12:533-41) and Weinstein et al., (1997, Science 275:343-9), which are incorporated herein in their entirety.
(§3) The measurement of an effect is expressed in Percentage Growth (PG). The measured effect of the compound on a cell line is calculated according to one or the other of the following two expressions: If (Mean ODtest−Mean ODzero)≧0. then PG=100×(Mean ODtest−Mean ODzero)/(Mean ODctrl−Mean ODzero) If (Mean ODtest−Mean ODzero)<0. then PG=100×(Mean ODtest−Mean ODzero)/(Mean ODzero where: • Mean ODzero=the average of optical density measurements of SRB-derived color just before exposure of cells to the test compounds; • Mean ODtest=the average of optical density measurements of SRB-derived color after exposure of cells to the test compound for a designated period of time; and • Mean ODctrl=the average of optical density measurements of SRB-derived color after with no exposure of cells to the test compound for a designated period of time
(§4) The first two columns describe the subpanel (e.g., leukemia) and cell line (e.g., CCRF-CEM) involved. The next two columns list the Mean ODzero and Mean ODctrl; the next five columns list the Mean ODtest for each of five different concentrations. Each concentration is expressed as the log10 (molar or μg/ml). The next five columns list the calculated PGs for each concentration. The response parameters GI50, TGI and LC50 are interpolated values representing the concentrations at which the PG is +50, 0, and −50, respectively. Sometimes these response parameters cannot be obtained by interpolation. If, for instance, all of the PGs in a given row exceed +50, then none of the three parameters can be obtained by interpolation. In such a case, the value given for each response parameter is the highest concentration tested and is preceded by a “>” sign. This practice is extended similarly to the other possible situations where a response parameter cannot be obtained by interpolation.
(§5) In the first set, the cells from 56 different cancer cell lines were exposed to five concentrations of arsenic trioxide continuously for two days prior to performing the SRB assay. In the second set, the cells from 50 different cell lines (a subset of the first 56 cell lines, plus the renal cancer cell line 786-0) were exposed continuously for six days prior to the SRB assay.

PC-3 = experiment: SRB growth assay, 2 days exposure, prostate cancer; assay type: cell-based
Method: as §1, §2, §3, §4, §5

SF-268 = experiment: SRB growth assay, 6 days exposure, CNS cancer; assay type: cell-based; details: SF-268, 6 days
Method: as §1, §2, §3, §4, §5

SF-295 = experiment: SRB growth assay, 6 days exposure, CNS cancer; assay type: cell-based; details: SF-295, 6 days
Method: as §1, §2, §3, §4, §5

SF-539 = experiment: SRB growth assay, 6 days exposure, CNS cancer; assay type: cell-based; details: SF-539, 6 days
Method: as §1, §2, §3, §4, §5

SNB-75 = experiment: SRB growth assay, 6 days exposure, CNS cancer; assay type: cell-based; details: SNB-75, 6 days
Method: as §1, §2, §3, §4, §5

U251 = experiment: SRB growth assay, 6 days exposure, CNS cancer; assay type: cell-based; details: U251, 6 days
Method: as §1, §2, §3, §4, §5

MDA-MB-231/ATCC = experiment: SRB growth assay, 6 days exposure, breast cancer; assay type: cell-based
Method: as §1, §2, §3, §4, §5

T-47D = experiment: SRB growth assay, 6 days exposure, breast cancer; assay type: cell-based
Method: as §1, §2, §3, §4, §5

refractory APL = details: 14 of 15 patients with refractory APL; intravenous 10 mg/day for 4-9 weeks; cited from earlier work

In the case of arsenic trioxide, the TGI (DU-145) is reported as over 0.0126 ng/mL, the “Percent Growth” value (DU-145; log10 conc −4.9) is reported as 64% and the “Percent Growth” value (DU-145; log10 conc −5.9) is reported as 96%. The “Percent Growth” value (DU-145; log10 conc −6.9) was 106%, the “Percent Growth” value (DU-145; log10 conc −7.9) was 131% and the “Percent Growth” value (DU-145; log10 conc −8.9) was 91%. The TGI (PC-3) was 0.011 ng/mL, the “Percent Growth” value (PC-3; log10 conc −4.9) was −4% and the “Percent Growth” value (PC-3; log10 conc −5.9) was 67%. For the same substance, the “Percent Growth” value (PC-3; log10 conc −6.9) was 88%, the “Percent Growth” value (PC-3; log10 conc −7.9) was 91% and the “Percent Growth” value (PC-3; log10 conc −8.9) was 103%. For the same substance, the TGI (SF-268) was 2.57E−06, the “Mean Optical Densities” value (SF-268; Log 10 Concentration −4.9) was −0.004 and the “Percent Growth” value (SF-268; Log 10 Concentration −4.9) was −100%. The “Mean Optical Densities” value (SF-268; Log 10 Concentration −5.9) was 0.387, the “Percent Growth” value (SF-268; Log 10 Concentration −5.9) was 45% and the “Mean Optical Densities” value (SF-268; Log 10 Concentration −6.9) was 0.356. The “Percent Growth” value (SF-268; Log 10 Concentration −6.9) was 41%, the “Mean Optical Densities” value (SF-268; Log 10 Concentration −7.9) was 0.381 and the “Percent Growth” value (SF-268; Log 10 Concentration −7.9) was 44%. The “Mean Optical Densities” value (SF-268; Log 10 Concentration −8.9) was 0.990, the “Percent Growth” value (SF-268; Log 10 Concentration −8.9) was 126% and the TGI (SF-295) was 3.25E−06. For the same substance, the “Mean Optical Densities” value (SF-295; Log 10 Concentration −4.9) was 0.010, the “Percent Growth” value (SF-295; Log 10 Concentration −4.9) was −69% and the “Mean Optical Densities” value (SF-295; Log 10 Concentration −5.9) was 0.659. For the same substance, the “Percent Growth” value (SF-295; Log 10 Concentration −5.9) was 49%, the “Mean Optical Densities” value (SF-295; Log 10 Concentration −6.9) was 1.244 and the “Percent Growth” value (SF-295; Log 10 Concentration −6.9) was 94%. The “Mean Optical Densities” value (SF-295; Log 10 Concentration −7.9) was 1.279, the “Percent Growth” value (SF-295; Log 10 Concentration −7.9) was 97% and the “Mean Optical Densities” value (SF-295; Log 10 Concentration −8.9) was 1.284. The “Percent Growth” value (SF-295; Log 10 Concentration −8.9) was 97%, the TGI (SF-539) was 3.29E−06 and the “Mean Optical Densities” value (SF-539; Log 10 Concentration −4.9) was 0.017. The “Percent Growth” value (SF-539; Log 10 Concentration −4.9) was −59%, the “Mean Optical Densities” value (SF-539; Log 10 Concentration −5.9) was 0.691 and the “Percent Growth” value (SF-539; Log 10 Concentration −5.9) was 42%. The “Mean Optical Densities” value (SF-539; Log 10 Concentration −6.9) was 1.545, the “Percent Growth” value (SF-539; Log 10 Concentration −6.9) was 97% and the “Mean Optical Densities” value (SF-539; Log 10 Concentration −7.9) was 1.403. The “Percent Growth” value (SF-539; Log 10 Concentration −7.9) was 87%, the “Mean Optical Densities” value (SF-539; Log 10 Concentration −8.9) was 1.727 and the “Percent Growth” value (SF-539; Log 10 Concentration −8.9) was 108%. For the same substance, the TGI (SNB-75) was 3.80E−06, the “Mean Optical Densities” value (SNB-75; Log 10 Concentration −4.9) was 0.028 and the “Percent Growth” value (SNB-75; Log 10 Concentration −4.9) was −79%. The “Mean Optical Densities” value (SNB-75; Log 10 Concentration −5.9) was 0.815, the “Percent Growth” value (SNB-75; Log 10 Concentration −5.9) was 73% and the “Mean Optical Densities” value (SNB-75; Log 10 Concentration −6.9) was 1.024. The “Percent Growth” value (SNB-75; Log 10 Concentration −6.9) was 96%, the “Mean Optical Densities” value (SNB-75; Log 10 Concentration −7.9) was 1.033 and the “Percent Growth” value (SNB-75; Log 10 Concentration −7.9) was 97%. For the same substance, the “Mean Optical Densities” value (SNB-75; Log 10 Concentration −8.9) was 1.143, the “Percent Growth” value (SNB-75; Log 10 Concentration −8.9) was 108% and the TGI (U251) was 8.51E−07. For the same substance, the “Mean Optical Densities” value (U251; Log 10 Concentration −4.9) was −0.012, the “Percent Growth” value (U251; Log 10 Concentration −4.9) was −100% and the “Mean Optical Densities” value (U251; Log 10 Concentration −5.9) was 0.088. For the same substance, the “Percent Growth” value (U251; Log 10 Concentration −5.9) was −17%, the “Mean Optical Densities” value (U251; Log 10 Concentration −6.9) was 1.908 and the “Percent Growth” value (U251; Log 10 Concentration −6.9) was 81%. The “Mean Optical Densities” value (U251; Log 10 Concentration −7.9) was 2.018, the “Percent Growth” value (U251; Log 10 Concentration −7.9) was 86% and the “Mean Optical Densities” value (U251; Log 10 Concentration −8.9) was 2.129. For the same substance, the “Percent Growth” value (U251; Log 10 Concentration −8.9) was 91%, the TGI (MDA-MB-231/ATCC) was 3.18E−06 and the “Mean Optical Densities” value (MDA-MB-231/ATCC; Log 10 Concentration −4.9) was −0.001. The “Percent Growth” value (MDA-MB-231/ATCC; Log 10 Concentration −4.9) was −100%, the “Mean Optical Densities” value (MDA-MB-231/ATCC; Log 10 Concentration −5.9) was 0.563 and the “Percent Growth” value (MDA-MB-231/ATCC; Log 10 Concentration −5.9) was 67%. For the same substance, the “Mean Optical Densities” value (MDA-MB-231/ATCC; Log 10 Concentration −6.9) was 0.771, the “Percent Growth” value (MDA-MB-231/ATCC; Log 10 Concentration −6.9) was 102% and the “Mean Optical Densities” value (MDA-MB-231/ATCC; Log 10 Concentration −7.9) was 0.764. The “Percent Growth” value (MDA-MB-231/ATCC; Log 10 Concentration −7.9) was 101%, the “Mean Optical Densities” value (MDA-MB-231/ATCC; Log 10 Concentration −8.9) was 0.759 and the “Percent Growth” value (MDA-MB-231/ATCC; Log 10 Concentration −8.9) was 100%. For the same substance, the TGI (T-47D) was 2.90E−06, the “Mean Optical Densities” value (T-47D; Log 10 Concentration −4.9) was 0.027 and the “Percent Growth” value (T-47D; Log 10 Concentration −4.9) was −73%. The “Mean Optical Densities” value (T-47D; Log 10 Concentration −5.9) was 0.398, the “Percent Growth” value (T-47D; Log 10 Concentration −5.9) was 41% and the “Mean Optical Densities” value (T-47D; Log 10 Concentration −6.9) was 0.539. The “Percent Growth” value (T-47D; Log 10 Concentration −6.9) was 61%, the “Mean Optical Densities” value (T-47D; Log 10 Concentration −7.9) was 0.336 and the “Percent Growth” value (T-47D; Log 10 Concentration −7.9) was 33%. For the same substance, the “Mean Optical Densities” value (T-47D; Log 10 Concentration −8.9) was 0.883, the “Percent Growth” value (T-47D; Log 10 Concentration −8.9) was 108% and the clinical efficacy (refractory APL) was “complete morphologic remission without associated bone marrow suppression”.
